Reference: US20260347361A1, “LRRK2 INHIBITORS AND USES THEREOF” (NEURON23, INC, priority 2022, published 2026)

Each compound was assayed against T1, wt human LRRK2 (Homo sapiens, UniProt Q5S007) (assay: TR-FRET LanthaScreen Tb Kinase Activity Assay, inhibition of LRRK2 kinase). Details: 2 nM wt human LRRK2, 400 nM fluorescein-ERM (LRRKtide) peptide, 38 µM ATP, 15 min pre-incubation, 120 min at room temperature.
T1 construct: wt human LRRK2, catalytic site, catalytic site (ThermoFisher/USA); purchased ThermoFisher
Type: biochemical
Experimental: In Table 2, activity is provided as the following: “+++”=IC50 less than 50 nM; “++”=IC50 between 50 nM and 200 nM; “+”=IC50> or =200 nM.
The compounds listed in Table 2 were tested for their inhibitory effect on LRRK2 kinase according to the following procedures.
The protocol for basic TR-FRET LanthaScreen Tb Kinase Activity Assay inhibitor studies were as follows. LanthaScreen Kinase Activity Assays (ThermoFisher/USA) to evaluate inhibitors were performed by addition of 100 nl of test compound in corresponding DMSO dilutions/5 μl of kinase/fluorescein-ERM(LRRKtide) peptide mixture, Compound & kinase were pre-incubated for 15 minutes, then 5 μl of ATP into 384 well small volume plates. After incubation for 120 minutes at room temperature, the detection reagents containing Tb-anti-pLRRKtide antibody were added to monitor phosphorylation level of peptide. Then, after 60 min minutes incubation at room temperature plates were read in Envision. Data analysis of emission ratios was according to LanthaScreen Tb Kinase Activity Assay protocol.
Kinase and assay components were adjusted to final concentrations according to the kit protocol. For LRRK2: 2 nM wt human LRRK2, catalytic site, catalytic site (ThermoFisher/USA), 400 nM peptide, 38 µM ATP in 1× Kinase Buffer A.
Basic protocol for TR-FRET LanthaScreen Tb Kinase Activity Assay inhibitor studies involved two steps:
Enzymatic step: Addition of […] of test compound in corresponding DMSO dilutions, 5 μL of kinase/substrate mixture, 5 μL of ATP into 384 well small volume plates. Incubation for 120 minutes at room temperature.
Detection step: Addition of 10 μL EDTA & antibody, read plate after 60 minutes. Data analysis of emission ratios according to KinEASE assay protocol.
Kinase and assay components were adjusted to final concentrations according to the kit protocol.

T1 sequence (Q5S007 970-2527 limits assumed): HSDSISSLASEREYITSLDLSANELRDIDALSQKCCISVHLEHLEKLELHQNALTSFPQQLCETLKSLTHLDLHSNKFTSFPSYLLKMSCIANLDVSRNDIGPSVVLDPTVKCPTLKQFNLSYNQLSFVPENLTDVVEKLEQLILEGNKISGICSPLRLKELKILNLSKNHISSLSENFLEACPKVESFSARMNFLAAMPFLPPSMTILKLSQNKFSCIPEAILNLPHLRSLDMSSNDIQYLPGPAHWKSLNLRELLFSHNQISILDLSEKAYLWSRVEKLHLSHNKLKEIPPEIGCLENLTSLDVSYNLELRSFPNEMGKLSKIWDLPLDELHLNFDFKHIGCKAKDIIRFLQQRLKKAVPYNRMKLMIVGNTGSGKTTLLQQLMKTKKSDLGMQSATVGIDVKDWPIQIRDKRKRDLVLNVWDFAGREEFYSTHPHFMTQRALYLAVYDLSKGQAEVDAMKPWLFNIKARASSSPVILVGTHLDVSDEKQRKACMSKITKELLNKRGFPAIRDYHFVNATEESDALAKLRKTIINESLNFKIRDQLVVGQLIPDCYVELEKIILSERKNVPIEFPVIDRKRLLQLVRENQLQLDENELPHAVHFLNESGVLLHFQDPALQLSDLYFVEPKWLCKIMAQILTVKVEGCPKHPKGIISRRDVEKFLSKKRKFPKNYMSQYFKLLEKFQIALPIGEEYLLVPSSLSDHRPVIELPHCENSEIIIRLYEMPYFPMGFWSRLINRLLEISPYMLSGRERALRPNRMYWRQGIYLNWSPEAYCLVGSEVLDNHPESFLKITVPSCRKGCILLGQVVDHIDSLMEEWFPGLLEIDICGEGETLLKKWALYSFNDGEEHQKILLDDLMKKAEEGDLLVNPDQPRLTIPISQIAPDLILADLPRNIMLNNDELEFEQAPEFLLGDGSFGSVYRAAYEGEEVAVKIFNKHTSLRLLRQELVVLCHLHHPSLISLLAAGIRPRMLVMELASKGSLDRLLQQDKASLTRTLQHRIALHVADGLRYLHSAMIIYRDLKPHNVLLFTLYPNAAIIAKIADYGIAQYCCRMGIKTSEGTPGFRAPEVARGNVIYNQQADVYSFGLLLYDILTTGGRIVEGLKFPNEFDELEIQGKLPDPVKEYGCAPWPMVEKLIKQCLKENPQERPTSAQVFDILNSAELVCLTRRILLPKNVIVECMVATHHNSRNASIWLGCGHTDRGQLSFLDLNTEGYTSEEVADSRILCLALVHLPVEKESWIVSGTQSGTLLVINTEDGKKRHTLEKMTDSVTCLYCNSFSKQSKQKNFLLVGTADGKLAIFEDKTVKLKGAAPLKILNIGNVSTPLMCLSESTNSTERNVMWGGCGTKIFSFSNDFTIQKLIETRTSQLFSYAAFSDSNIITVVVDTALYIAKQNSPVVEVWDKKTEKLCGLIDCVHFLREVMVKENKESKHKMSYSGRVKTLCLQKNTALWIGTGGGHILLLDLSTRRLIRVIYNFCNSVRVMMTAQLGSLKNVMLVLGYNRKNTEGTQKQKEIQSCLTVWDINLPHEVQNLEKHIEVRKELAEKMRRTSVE

Row | IC50 | Compound
1 | < 50 nM | Fc1cccc(F)c1C1=Nc2c(F)cnn2-c2cc(N3CCOCC3)ncc2N1 [4-(5-(2,6-difluorophenyl)-3-fluoro-6H-pyrazolo[1,5-a]pyrido[3,4-f][1,3,5]triazepin-9-yl)morpholine]
2 | < 50 nM | Fc1cc(F)c(C2=Nc3c(Cl)cnn3-c3cc(N4CCOCC4)ncc3N2)c(F)c1 [4-(3-chloro-5-(2,4,6-trifluorophenyl)-6H-pyrazolo[1,5-a]pyrido[3,4-f][1,3,5]triazepin-9-yl)morpholine]
3 | < 50 nM | Fc1cccc(F)c1C1=Nc2c(Cl)cnn2-c2cc(N3C[C@H]4CC[C@@H]3CO4)ccc2N1 [(1R,4R)-5-[3-chloro-5-(2,6-difluorophenyl)-6H-pyrazolo[1,5-a][1,3,5]benzotriazepin-9-yl]-2-oxa-5-azabicyclo[2.2.2]octane]
4 | < 50 nM | Fc1cccc(F)c1C1=Nc2c(Cl)cnn2-c2cc(N3CCNC4(CC4)C3)ccc2N1 [3-chloro-9-(4,7-diazaspiro[2.5]octan-7-yl)-5-(2,6-difluorophenyl)-6H-pyrazolo[1,5-a][1,3,5]benzotriazepine]
5 | < 50 nM | Fc1cccc(F)c1C1=Nc2c(Cl)cnn2-c2cc(N3CC4(COC4)C3)ccc2N1 [6-[3-chloro-5-(2,6-difluorophenyl)-6H-pyrazolo[1,5-a][1,3,5]benzotriazepin-9-yl]-2-oxa-6-azaspiro[3.3]heptane]
6 | < 50 nM | Fc1cccc(F)c1C1=Nc2c(Cl)cnn2-c2cc(Br)ccc2N1 [9-bromo-3-chloro-5-(2,6-difluorophenyl)-6H-pyrazolo[1,5-a][1,3,5]benzotriazepine]
